According to publication PMC8617031, “Development of a BCL-xL and BCL-2 dual degrader with improved anti-leukemic activity,” (Nature Communications, 2021):
Where “and” joins values, the source holds several entries; their conditions need not be identical. Identical values can stand only once.

Columns and labels:
BCL-xL = biological target: T1, BCL-xL (Homo sapiens, UniProt Q07817); assay: BCL-xL degradation by immunoblot in 293T cells; format: cell-based
T1 construct: endogenous in cells
Experimental: (§1) The DC50 and Dmax were calculated using Prism based on the ImageJ-quantified western blots in Supplementary Fig. 4. c, d AlphaLISA assay to determine the formation of BCL-xL/PROTAC/VHL-ELOC-ELOB (VCB) (c) or BCL-2/PROTAC/VCB (d) ternary complex in a cell-free condition. Data represent the mean of a single experiment with 2 technical replicates. Similar results were obtained in one more independent experiment. e, f NanoBRET assays evaluating intracellular BCL-xL/PROTAC/VCB (e) or BCL-2/PROTAC/VCB (f) ternary complex formation. […] Data are expressed as mean ± s.e.m. of three biological replicates. Source data are provided as a Source data file.
(§2) Representative immunoblots are shown in (a–d) and β-actin was used as a loading control in all immunoblot analyses. The normalized protein content in the immunoblots is presented as mean values ± s.e.m. (n = 3 biologically independent experiments) in the bar graph (bottom panel). e, f The formation of BCL-xL/PROTAC/VCB (e) and BCL-2/PROTAC/VCB (f) ternary complexes in a cell-free condition was determined by AlphaLISA assay. Data represent the mean of a single experiment with 2 technical replicates. […] Source data are provided as a Source data file.
(§3) Cells were collected, washed once with ice-cold phosphate-buffered saline, pH 7.2 (PBS, cat. no. 20012027; Thermo Fisher Scientific) and lysed in RIPA lysis buffer (Cat. No. BP-115DG, Boston Bio Products, Ashland, MA, USA) supplemented with protease and phosphatase inhibitor cocktails (Cat. No. PPC1010, Sigma-Aldrich, St. Louis, MO, USA) through sonication. The samples were centrifuged at 14,000 r.p.m. for 5 min and the supernatants were transferred into a new tube. The protein concentration in the supernatants was determined using the Pierce BCA protein Assay kit (cat. no. 23225, Thermo Fisher Scientific). The protein concentration was normalized, and the samples were reduced in 4× Laemmli’s SDS-sample buffer (cat. no. BP-110R, Boston Bio Products) and denatured at 95 °C for 5 min. An equal amount of protein samples (20–40 μg per lane) were resolved using precast 4–20% Tris-glycine gels (Mini-PROTEAN TGX, cat. no. 456–1094, Bio-Rad), and resolved proteins were transferred onto 0.2-µm pore size polyvinylidene difluoride (PVDF) blotting membranes (cat. no. LC2002, Thermo Fisher Scientific) using mini trans-blot electrophoretic transfer cell (Bio-Rad). The membranes were blocked with non-fat dry milk (5% wt/vol) in 1× Tris-buffered saline-Tween-20 (TBST, cat. no. J77500, Affymetrix) for 1 h at room temperature, and were subsequently probed with primary antibodies at a predetermined optimal concentration in non-fat dry milk (5% wt/vol in TBST) overnight at 4 °C. The membranes were washed three times (5 min each) in TBST and then incubated with horse radish peroxidase (HRP)-conjugated secondary antibodies for 1 h at room temperature. Following sufficient washing with TBST, the membranes were exposed with chemiluminescent HRP substrate (cat. no. WBKLS0500, MilliporeSigma), and the signal was detected using the ChemiDoc MP Imaging System (Bio-Rad) and quantified using the ImageJ (v1.53a) software from NIH.

BCL-2 = biological target: T2, BCL-2 (Homo sapiens, UniProt P10415); assay: BCL-2 degradation by immunoblot in 293T cells; format: cell-based; conditions: HEK-293T
T2 construct: endogenous in cells
Experimental: as §1, §2, §3

[1] = biological target: T3, BCL-xL/PROTAC/VHL-ELOC-ELOB (VCB) ternary complex (Homo sapiens, UniProt P40337+Q07817); assay: AlphaLISA ternary complex formation, cell-free, BCL-xL; format: binding; conditions: for AlphaLISA signal, BCL-xL/PROTAC/VCB: Fig. 2c raw Alpha reads
T3 construct: pGEX-6P-1-VHL(54-213) (pDL2200) was constructed through Gibson assembly method; made in house; host or cells: bacterial culture (LB broth, IPTG induction)
Experimental: (§4) AlphaLISA assay was used to evaluate the in vitro ternary complex formation between target proteins (BCL-xL or BCL-2), PROTAC and E3 ligase (VCB complex). In each well, 5 nM His-tagged BCL-xL or BCL-2 proteins and 5 nM GST-VCB complex was incubated with varying concentrations of compounds in fourfold serial dilutions, to a final volume of 40 µl in a 96-well PCR plate. After incubation at room temperature for 30 min, 5 µl alpha glutathione-donor beads (Cat. No. 6765300, PerkinElmer) were added to each well (20 µg/ml final concentration) and incubated for another 15 min. Thereafter, 5 µL 6× His-acceptor beads were added to each well (20 µg/ml final concentration) and incubated for an additional 45 min at room temperature. Thereafter, 17 µl of each sample was transferred in adjacent wells of a 384-well proxy plate, and the plate was scanned using the Alpha program on Biotek’s Synergy Neo2 multimode plate reader. The data were expressed as average AlphaLISA signal and plotted against different concentrations of compounds using GraphPad Prism 9 software.

[2] = biological target: T4, BCL-2/PROTAC/VCB ternary complex (Homo sapiens, UniProt P10415+P40337); assay: AlphaLISA ternary complex formation, cell-free, BCL-2; format: binding; conditions: for AlphaLISA signal, BCL-2/PROTAC/VCB: Fig. 2d raw Alpha reads
T4 construct: pGEX-6P-1-VHL(54-213) (pDL2200) was constructed through Gibson assembly method; made in house; host or cells: bacterial culture (LB broth, IPTG induction)
Experimental: as §4

Kasumi-1 cells = assay: Viability (MTS) of Kasumi-1 AML cells; format: cell-based, human; conditions: Fig. 7a

T1 sequence (Q07817 whole entry): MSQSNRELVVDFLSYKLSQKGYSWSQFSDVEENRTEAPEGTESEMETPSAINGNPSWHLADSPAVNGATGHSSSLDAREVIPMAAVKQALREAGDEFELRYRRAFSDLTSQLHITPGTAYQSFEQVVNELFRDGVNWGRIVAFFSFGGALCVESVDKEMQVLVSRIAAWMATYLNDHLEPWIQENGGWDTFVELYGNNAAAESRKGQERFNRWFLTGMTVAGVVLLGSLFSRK
T3 sequence (Q07817 1-212 limits assumed): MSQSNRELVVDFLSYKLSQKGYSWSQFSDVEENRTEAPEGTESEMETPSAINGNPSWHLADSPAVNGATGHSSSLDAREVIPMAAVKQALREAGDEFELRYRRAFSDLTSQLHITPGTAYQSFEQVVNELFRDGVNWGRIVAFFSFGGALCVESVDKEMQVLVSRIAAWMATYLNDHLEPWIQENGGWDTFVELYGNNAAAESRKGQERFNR
T3 sequence (P40337 54-213 limits assumed): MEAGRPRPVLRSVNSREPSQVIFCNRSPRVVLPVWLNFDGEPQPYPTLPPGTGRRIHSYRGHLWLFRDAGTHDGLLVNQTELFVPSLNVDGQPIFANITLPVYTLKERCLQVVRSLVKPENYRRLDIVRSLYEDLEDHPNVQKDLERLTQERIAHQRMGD
T3 sequence (Q15369 17-112 partner limits assumed): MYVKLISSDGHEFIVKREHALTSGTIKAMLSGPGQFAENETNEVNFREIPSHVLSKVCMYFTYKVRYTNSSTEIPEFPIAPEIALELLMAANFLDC
T3 sequence (Q15370 whole entry partner): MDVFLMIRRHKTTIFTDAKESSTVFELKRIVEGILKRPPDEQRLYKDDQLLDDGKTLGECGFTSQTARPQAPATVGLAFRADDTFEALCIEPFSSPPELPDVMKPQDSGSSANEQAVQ
T4 sequence (P10415 1-211 limits assumed): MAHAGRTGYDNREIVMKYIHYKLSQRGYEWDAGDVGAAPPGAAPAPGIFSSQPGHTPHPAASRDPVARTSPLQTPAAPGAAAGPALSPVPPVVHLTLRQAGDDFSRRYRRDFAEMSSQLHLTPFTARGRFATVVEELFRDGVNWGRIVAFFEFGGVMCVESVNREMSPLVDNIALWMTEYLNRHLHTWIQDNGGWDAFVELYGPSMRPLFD
T4 sequence (P40337 54-213 limits assumed): as the sequence (P40337 54-213 limits assumed) above
T4 sequence (Q15369 17-112 partner limits assumed): as the sequence (Q15369 17-112 partner limits assumed) above
T4 sequence (Q15370 whole entry partner): as the sequence (Q15370 whole entry partner) above
T2 sequence (P10415 whole entry): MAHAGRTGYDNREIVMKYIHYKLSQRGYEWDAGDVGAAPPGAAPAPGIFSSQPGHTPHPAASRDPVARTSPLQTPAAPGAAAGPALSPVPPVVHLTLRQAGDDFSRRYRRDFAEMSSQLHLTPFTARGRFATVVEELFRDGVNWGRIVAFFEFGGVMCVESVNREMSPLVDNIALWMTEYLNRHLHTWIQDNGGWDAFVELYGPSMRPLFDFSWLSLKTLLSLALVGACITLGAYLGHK

Cc1ncsc1-c1ccc([C@H](C)NC(=O)[C@@H]2C[C@@H](O)CN2C(=O)[C@@H](NC(=O)CCCC(=O)N2CCN(CC3(C)CCC(c4ccc(Cl)cc4)=C(CN4CCN(c5ccc(C(=O)NS(=O)(=O)c6ccc(N[C@H](CCN7CCOCC7)CSc7ccccc7)c(S(=O)(=O)C(F)(F)F)c6)cc5)CC4)C3)CC2)C(C)(C)C)cc1 (stereo partly drawn) [PPC5]
BCL-xL degradation (in words) (BCL-xL; 293T cells, 16 h): partially degrade BCL-xL | DC50 (BCL-xL; 293T cells, four concentrations, 16 h, Fig. 2b, read-out: BCL-xL DC50): 316 nM | Dmax (BCL-xL; HEK-293T): 56% | Dmax (BCL-2): 47% | in vitro ternary complex formation with BCL-xL (in words) ([1]; AlphaLISA, cell-free, Fig. 2c, 3e): stronger ternary complexes | AlphaLISA signal, BCL-xL/PROTAC/VCB ([1]; compound 0.191 nM): 14064 and 15339 | AlphaLISA signal, BCL-xL/PROTAC/VCB ([1]; compound 0.763 nM): 16647 and 16446 | AlphaLISA signal, BCL-xL/PROTAC/VCB ([1]; compound 3.052 nM): 29664 and 30068 | AlphaLISA signal, BCL-xL/PROTAC/VCB ([1]; compound 12.207 nM): 308120 and 297735 | AlphaLISA signal, BCL-xL/PROTAC/VCB ([1]; compound 48.828 nM): 915794 and 868616 | AlphaLISA signal, BCL-xL/PROTAC/VCB ([1]; compound 195.31 nM): 760327 and 820012 | AlphaLISA signal, BCL-xL/PROTAC/VCB ([1]; compound 781.25 nM): 680312 and 708753 | AlphaLISA signal, BCL-xL/PROTAC/VCB ([1]; compound 3125 nM): 257573 and 298187 | AlphaLISA signal, BCL-xL/PROTAC/VCB ([1]; compound 12500 nM): 45345 and 53654 | AlphaLISA signal, BCL-xL/PROTAC/VCB ([1]; compound 50000 nM): 21182 and 20463 | in vitro ternary complex formation with BCL-2 (in words) ([2]; AlphaLISA, cell-free, Fig. 2d, 3f): stronger ternary complexes | AlphaLISA signal, BCL-2/PROTAC/VCB ([2]; compound 0.191 nM): 15183 and 13115 | AlphaLISA signal, BCL-2/PROTAC/VCB ([2]; compound 0.763 nM): 15317 and 19455 | AlphaLISA signal, BCL-2/PROTAC/VCB ([2]; compound 3.052 nM): 45755 and 47236 | AlphaLISA signal, BCL-2/PROTAC/VCB ([2]; compound 12.207 nM): 410345 and 373015 | AlphaLISA signal, BCL-2/PROTAC/VCB ([2]; compound 48.828 nM): 1136924 and 1140765 | AlphaLISA signal, BCL-2/PROTAC/VCB ([2]; compound 195.31 nM): 1286256 and 1221888 | AlphaLISA signal, BCL-2/PROTAC/VCB ([2]; compound 781.25 nM): 709163 and 786788 | AlphaLISA signal, BCL-2/PROTAC/VCB ([2]; compound 3125 nM): 91120 and 92885 | AlphaLISA signal, BCL-2/PROTAC/VCB ([2]; compound 12500 nM): 18341 and 15512

Cc1c(-c2c(-c3ccc(F)o3)sc3ncnc(O[C@H](Cc4ccccc4OCc4ccnn4CC(F)(F)F)C(=O)O)c23)ccc(OCCN2CCN(C)CC2)c1Cl [S63845]
Luminescence (raw plate reading) (Kasumi-1 cells; 3.90625 nM (plate column 2)): 585765 and 593361 and 588702 and 615617 | Luminescence (raw plate reading) (Kasumi-1 cells; 7.8125 nM (plate column 3)): 614886 and 587762 and 581843 and 642033 | Luminescence (raw plate reading) (Kasumi-1 cells; 15.625 nM (plate column 4)): 585793 and 568144 and 557931 and 596587 | Luminescence (raw plate reading) (Kasumi-1 cells; 31.25 nM (plate column 5)): 583012 and 572945 and 570605 and 624151 | Luminescence (raw plate reading) (Kasumi-1 cells; 62.5 nM (plate column 6)): 545426 and 545383 and 550949 and 588219 | Luminescence (raw plate reading) (Kasumi-1 cells; 125 nM (plate column 7)): 511944 and 516519 and 502413 and 546675 | Luminescence (raw plate reading) (Kasumi-1 cells; 250 nM (plate column 8)): 434681 and 438403 and 429749 and 470053 | Luminescence (raw plate reading) (Kasumi-1 cells; 500 nM (plate column 9)): 365024 and 363596 and 364210 and 384218 | Luminescence (raw plate reading) (Kasumi-1 cells; 1000 nM (plate column 10)): 263752 and 271433 and 266762 and 285013 | Luminescence (raw plate reading) (Kasumi-1 cells; 2000 nM = 2U (plate column 11)): 165813 and 178184 and 172580 and 186041 | Luminescence (raw plate reading) (Kasumi-1 cells; 4000 nM = 4U (plate column 12)): 112826 and 107734 and 101511 and 111059 | Luminescence normalised to mean of the 0 concentration wells (= 100), viability (Kasumi-1 cells; 3.90625 (nM)): 85.5833 and 86.6931 and 86.0124 and 89.9448 | Luminescence normalised to mean of the 0 concentration wells (= 100), viability (Kasumi-1 cells; 7.8125 (nM)): 89.838 and 85.875 and 85.0102 and 93.8043 | Luminescence normalised to mean of the 0 concentration wells (= 100), viability (Kasumi-1 cells; 15.625 (nM)): 85.5874 and 83.0087 and 81.5166 and 87.1644 | Luminescence normalised to mean of the 0 concentration wells (= 100), viability (Kasumi-1 cells; 31.25 (nM)): 85.181 and 83.7102 and 83.3683 and 91.1917 | Luminescence normalised to mean of the 0 concentration wells (= 100), viability (Kasumi-1 cells; 62.5 (nM)): 79.6895 and 79.6832 and 80.4965 and 85.9418 | Luminescence normalised to mean of the 0 concentration wells (= 100), viability (Kasumi-1 cells; 125 (nM)): 74.7976 and 75.4661 and 73.4051 and 79.872 | Luminescence normalised to mean of the 0 concentration wells (= 100), viability (Kasumi-1 cells; 250 (nM)): 63.5091 and 64.0529 and 62.7885 and 68.6771 | Luminescence normalised to mean of the 0 concentration wells (= 100), viability (Kasumi-1 cells; 500 (nM)): 53.3319 and 53.1232 and 53.2129 and 56.1362 | Luminescence normalised to mean of the 0 concentration wells (= 100), viability (Kasumi-1 cells; 1000 (nM)): 38.5355 and 39.6577 and 38.9753 and 41.6419 | Luminescence normalised to mean of the 0 concentration wells (= 100), viability (Kasumi-1 cells; 2000 (nM, 2U)): 24.2261 and 26.0336 and 25.2148 and 27.1815 | Luminescence normalised to mean of the 0 concentration wells (= 100), viability (Kasumi-1 cells; 4000 (nM, 4U)): 16.4845 and 15.7405 and 14.8313 and 16.2263 | IC50 (Kasumi-1 cells; 72 h, read-out: IC50, viability of Kasumi-1 AML cells): 527 nM
